Like-named read-outs stand apart in the source and are kept apart here. Marks after values point to notes of the source that are not given here.
Assay: Pharmacokinetic study of everolimus in mice bearing HT29 tumors (plasma and tumor, LC/MS/MS)
Format: in vivo
Conditions: for Cmax / Tmax / AUC(0-t) / CL/F / Vd/F / half-life: nude; for CL/F: read-out: CLss/F (converted); for Vd/F: read-out: Vz/F; for half-life: read-out: t½ (converted)
Procedure: A pharmacokinetic study of everolimus was conducted in mice bearing HT29 tumors (average volume ∼300 mm^3). Mice were treated with either 2.5 or 10 mg/kg everolimus daily for 7 days by oral gavage. Three mice per dose level were sacrificed by cardiac stick exsanguination at 30 minutes, 2, 4, 6 and 24 hours following drug administration on day 7. Plasma and tumor tissue were snap-frozen in liquid N2 and stored at −70°C until analyzed.
Everolimus was measured in plasma and tumors by LC/MS/MS assay. Analytical standards, quality control (QC) and unknowns were all prepared by adding 200 µl of unknown or spiked blank plasma or tumor homogenate (100 mg/ml in water) samples to a 1.5 ml microcentrifuge tube. Samples were extracted by the addition of 1 ml methyl tert-butyl ether (MTBE) followed by 10 min vortex mixing. Samples were centrifuged at 13,000 RPM for 10 min and the supernatant collected and 900 µl transferred to a clean glass test tube. Samples were evaporated to dryness using a rotary evaporator followed by re-suspension in 100 µl of 50% acetonitrile/50% 10 mM ammonium acetate and transferred to auto-sampler vials for analysis. Mass spectra for extracted samples was obtained on a MDS Sciex 3200 Q-TRAP triple quadrupole mass spectrometer (Applied Biosystems, Inc., Foster City, CA) with a turbo ionspray source interfaced to an Agilent 1200 Series Binary Pump SL HPLC system (Santa Clara, CA).The lower and upper limits of quantitation for the assay were 1 and 5000 nM, respectively. Accuracy and precision (% RSD) based on analysis of standards and QC samples for this assay were 90.7% and 5.5% for plasma and 93.0% and 4.2% for tumor. Additional details may be found in Supplement S1 (section SA.1.).
Plasma and tumor pharmacokinetic parameters were calculated by noncompartmental analysis with WinNonlin. Everolimus plasma data was fit to a two-compartment model with first-order absorption and simulations of plasma concentrations at a 5 mg/kg dose of everolimus were performed by SAAM II version 2.1 (The Epsilon Group, Charlottesville, VA/University of Washington).

[1] = 2.5 mg/kg daily oral for 7 days, Mouse, plasma, steady-state
[2] = 10 mg/kg daily oral for 7 days, Mouse, plasma, steady-state
[3] = mouse, po, HT29 tumor, 2.5 mg/kg, mice
[4] = mouse, po, HT29 tumor, 10 mg/kg, mice
[5] = mouse, po, plasma, 2.5 mg/kg, mice, non-compartmental analysis
[6] = mouse, po, plasma, 10 mg/kg, mice, non-compartmental analysis

## CO[C@H]1C[C@@H]2CC[C@@H](C)[C@@](O)(O2)C(=O)C(=O)N2CCCC[C@H]2C(=O)O[C@H]([C@H](C)C[C@@H]2CC[C@@H](OCCO)[C@H](OC)C2)CC(=O)[C@H](C)/C=C(\C)[C@@H](O)[C@@H](OC)C(=O)[C@H](C)C[C@H](C)/C=C/C=C/C=C/1C [Everolimus, 40-O-(2-hydroxyethyl)-rapamycin]
[1]
  Cmin: 12±6 ^b ng/mL
  Cmax: 350 ± 230 ng/mL
[2]
  Cmin: 59±5 ^b ng/mL
  Cmax: 1680 ± 277 ng/mL
10 mg/kg in mice, 99% plasma protein binding used
  AUCss,free (steady-state free plasma exposure): 116 ng·h/mL
[3]
  Cmax: 52 nM
  Tmax: 0.5 h
mouse, po, HT29 tumor, 2.5 mg/kg, mice, read-out: AUC0→24
  AUC(0-t): 0.742 µM·h
[4]
  Cmax: 250 nM
  Tmax: 4 h
mouse, po, HT29 tumor, 10 mg/kg, mice, read-out: AUC0→24
  AUC(0-t): 3.93 µM·h
[5]
  Cmax: 365 nM
  Tmax: 0.5 h
  CL/F: 20 mL/min/kg
  Vd/F: 10.8 L/kg
mouse, po, plasma, 2.5 mg/kg, mice, non-compartmental analysis, read-out: AUC0→24
  AUC(0-t): 2 µM·h
[6]
  Cmax: 1760 nM
  Tmax: 0.5 h
  CL/F: 13.8 mL/min/kg
  Vd/F: 6 L/kg
mouse, po, plasma, 10 mg/kg, mice, non-compartmental analysis, read-out: AUC0→24
  AUC(0-t): 12.1 µM·h
2.5 mg/kg daily oral for 7 days, Mouse, plasma, read-out: AUC0→t
  AUC(0-t): 1920 ng·h/mL
2.5 mg/kg daily oral for 7 days, Mouse, plasma
  half-life: 6 h
10 mg/kg daily oral for 7 days, Mouse, plasma, read-out: AUC0→t
  AUC(0-t): 11600 ng·h/mL
10 mg/kg daily oral for 7 days, Mouse, plasma
  half-life: 5 h

Reference: PMC3592886, “Utilization of Quantitative In Vivo Pharmacology Approaches to Assess Combination Effects of Everolimus and Irinotecan in Mouse Xenograft Models of Colorectal Cancer” (PLoS ONE, 2013)
